Results as given in paper PMC6350621, “Small-molecules that covalently react with a human prolyl hydroxylase – towards activity modulation and substrate capture” (Chemical Communications (Cambridge, England), 2018).
Each block holds one compound with its values, some of them ahead of it.

Key:
[1] = target: T1, PHD2_181–426 (Homo sapiens, UniProt Q9GZT9); experiment: Non-denaturing ESI-MS of covalent adduct formation with PHD2; format: binding; conditions: for covalent modification of PHD2: analogues of 1/2, compared with 1/2; for condensation (covalent adduct) with PHD2 after 5 min: equimolar PHD2 (20 μM), Fe(II) and compound; for covalent reaction with PHD2 after 20 min: equimolar PHD2 and Fe(II), cone voltage 200 V
T1 construct: PHD2_181–426 (hereafter PHD2); His6 (N, cleaved yes); made in house; host or cells: bacterial culture (2x TY, kanamycin, IPTG)
Description: The interaction of the ligands with PHD2_181–426 (hereafter PHD2) was examined by non-denaturing ESI-MS, using cone voltage variation to distinguish covalent and non-covalent complexes (non-covalent interactions are typically preserved at cone voltages of 50–80 V, and dissociated at 200 V).[16]–[18] Aldehydes 1 and 2 were incubated with equimolar PHD2 and Fe(II) (37 °C; 5 or 20 min). […] Without Fe(II), neither covalent nor non-covalent adducts were observed, implying covalent conjugation involves active site Fe(II) binding, with subsequent condensation.
Fig. S2 A) Schematic representation of the assigned species formed on addition of 1 or 2 to PHD2. The results support initial non-covalent binding of the inhibitors to PHD2.Fe(II) to form B. Subsequently, condensation of a lysine residue with the aldehyde forms the covalent adduct C. (B) and (C): Non-denaturing ESI-MS data support the covalent crosslinking of 1/2 with PHD2. Conditions: PHD2 (20 µM) was incubated (37 °C, 5 or 20 min) with equimolar FeSO4 and 1 or 2, and the resulting mixtures were analysed by ESI-MS (cone voltage: 50 V or 200 V). Labelled peaks correspond to: A: Unmodified PHD2.Fe. B: Non-covalent adduct PHD2.Fe.2. C: Covalent adduct PHD2.Fe.1/2.
Fig. S6 The α,β-unsaturated amide 3 can covalently modify PHD2. (A) Schematic representation of the adducts formed upon incubation of 3 with PHD2.
PHD2. PHD2 (20 µM) was incubated (37 °C, 5 min, 1 h or 2 h) with equimolar FeSO4 and 3 or 4 before analysis by ESI-MS (cone voltage: 50 V or 200 V). Labelled peaks correspond to the following assigned complexes: A: unmodified PHD2.Fe; B: the non-covalent PHD2.Fe.3 adduct; C: the covalent PHD2.Fe.3 adduct.
2. Experimental procedures
1.1.1 Non-denaturing mass spectrometry1
Apo PHD2 was desalted using a Bio-Spin 6 Column (Bio-Rad, Hemel Hempstead, UK) into 15 mM ammonium acetate (pH 7.5). The stock solution was diluted with the same buffer to a final concentration of 100 μM. FeSO4·7H2O was dissolved in 20 mM HCl at a concentration of 100 mM. This solution was then diluted with MilliQ purified water to give a final working concentration of 100 μM. The protein was mixed with the Fe(II) solution and the inhibitor solution to give final concentrations of 20 μM PHD2, 20 μM Fe(II), and 20 μM inhibitor. The resultant solution was incubated for the appropriate time (specified in the text) at 37 […]
(5 min or 20 min) at 37 °C. After incubation, the samples were immediately analysed by ESI-MS. Data were acquired using a Q-TOF mass spectrometer (Q-TOF micro, Micromass, Altrincham, UK) interfaced with a Nanomate (Advion Biosciences, Ithaca, NY, USA) with a chip voltage of 1.70 kV and a delivery pressure 0.5 psi (1 psi = […]). The sample cone voltage was typically 200 or 50 V with a source temperature of 40 °C and with an acquisition/scan time of 10s/1s. Sample acquisition was performed in positive ion mode in the range of 2000-4000 m/z. The pressure at the interface between the atmospheric source and the high vacuum region was fixed at 6.30 mbar. External instrument calibration was achieved using sodium iodide.

[2] = target: T2, KDM4A (Homo sapiens, UniProt O75164); experiment: AlphaScreen assay KDM4A
T2 sequence (O75164 1-1064): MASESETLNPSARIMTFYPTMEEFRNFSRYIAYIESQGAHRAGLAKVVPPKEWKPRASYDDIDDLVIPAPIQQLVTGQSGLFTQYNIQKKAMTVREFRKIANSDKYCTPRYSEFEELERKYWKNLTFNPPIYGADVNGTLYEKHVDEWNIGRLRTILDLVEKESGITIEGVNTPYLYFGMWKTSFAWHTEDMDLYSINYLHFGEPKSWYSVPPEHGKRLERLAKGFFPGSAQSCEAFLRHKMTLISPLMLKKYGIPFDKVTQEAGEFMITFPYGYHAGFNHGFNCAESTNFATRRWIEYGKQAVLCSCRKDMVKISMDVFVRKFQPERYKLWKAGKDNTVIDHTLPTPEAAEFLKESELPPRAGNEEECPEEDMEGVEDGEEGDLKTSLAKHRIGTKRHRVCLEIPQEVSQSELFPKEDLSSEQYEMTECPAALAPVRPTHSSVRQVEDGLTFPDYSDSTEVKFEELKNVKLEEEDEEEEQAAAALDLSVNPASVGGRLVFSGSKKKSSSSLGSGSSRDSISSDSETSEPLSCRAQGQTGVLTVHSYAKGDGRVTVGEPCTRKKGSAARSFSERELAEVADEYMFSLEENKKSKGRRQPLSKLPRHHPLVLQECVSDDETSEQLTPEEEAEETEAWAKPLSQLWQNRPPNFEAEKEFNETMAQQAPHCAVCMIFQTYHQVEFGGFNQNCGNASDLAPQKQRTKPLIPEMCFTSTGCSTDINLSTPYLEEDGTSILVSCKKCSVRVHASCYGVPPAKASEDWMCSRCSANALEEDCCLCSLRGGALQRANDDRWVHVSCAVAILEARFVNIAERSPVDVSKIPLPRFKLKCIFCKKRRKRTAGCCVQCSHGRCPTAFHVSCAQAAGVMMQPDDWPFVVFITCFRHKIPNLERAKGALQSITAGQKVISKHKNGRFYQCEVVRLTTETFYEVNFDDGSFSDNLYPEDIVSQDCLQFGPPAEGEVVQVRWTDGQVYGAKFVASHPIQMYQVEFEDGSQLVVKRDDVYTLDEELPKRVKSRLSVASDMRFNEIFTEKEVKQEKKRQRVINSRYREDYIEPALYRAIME

[3] = target: T3, KDM4D (Homo sapiens, UniProt Q6B0I6); experiment: AlphaScreen assay KDM4D
T3 sequence (Q6B0I6 1-523): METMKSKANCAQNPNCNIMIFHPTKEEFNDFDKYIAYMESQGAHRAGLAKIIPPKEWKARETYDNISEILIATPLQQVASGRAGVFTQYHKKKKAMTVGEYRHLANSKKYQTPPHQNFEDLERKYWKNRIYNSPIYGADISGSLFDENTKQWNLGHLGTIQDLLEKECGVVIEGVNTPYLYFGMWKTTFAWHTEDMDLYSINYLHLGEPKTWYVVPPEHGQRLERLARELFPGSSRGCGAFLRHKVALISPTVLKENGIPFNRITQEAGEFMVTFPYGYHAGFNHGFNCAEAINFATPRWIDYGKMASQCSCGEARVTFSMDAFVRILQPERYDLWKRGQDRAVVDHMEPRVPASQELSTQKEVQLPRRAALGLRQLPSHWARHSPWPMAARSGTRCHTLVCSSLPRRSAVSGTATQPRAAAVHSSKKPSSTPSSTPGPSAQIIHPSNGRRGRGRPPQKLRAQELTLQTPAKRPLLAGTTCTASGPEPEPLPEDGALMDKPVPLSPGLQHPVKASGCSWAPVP

[4] = target: KDM5B (Homo sapiens, UniProt Q9UGL1); experiment: AlphaScreen assay KDM5B
[5] = target: KDM6B (Homo sapiens, UniProt O15054); experiment: AlphaScreen assay KDM6B
[6] = target: T4, PHD2 (Homo sapiens, UniProt Q9GZT9); experiment: Peptide turnover assay (CODD hydroxylation) with MALDI-MS detection; format: biochemical; conditions: >95% crosslinked PHD2·Fe·compound, 30 µM compound kept in the assay
T4 construct: PHD2_181–426 (hereafter PHD2); His6 (N, cleaved yes); made in house; host or cells: bacterial culture (2x TY, kanamycin, IPTG)

[7] = target: T5, PHD2 (residues 181-426) (Homo sapiens, UniProt Q9GZT9); experiment: biochemical
[8] = target: T5, PHD2 (residues 181-426); experiment: AlphaScreen antibody based PHD2 inhibition assay; conditions: preincubated versus not
[9] = test system: HIF-1α in HeLa cells; experiment: HIF-1α levels in HeLa cells by anti-HIF-1α immunoblotting; conditions: 6 h
[10] = test system: PHD2; design: method as in PMID 16782814; conditions: reversible iron-binding inhibitor; cited from earlier work

T1 sequence (Q9GZT9 181-426): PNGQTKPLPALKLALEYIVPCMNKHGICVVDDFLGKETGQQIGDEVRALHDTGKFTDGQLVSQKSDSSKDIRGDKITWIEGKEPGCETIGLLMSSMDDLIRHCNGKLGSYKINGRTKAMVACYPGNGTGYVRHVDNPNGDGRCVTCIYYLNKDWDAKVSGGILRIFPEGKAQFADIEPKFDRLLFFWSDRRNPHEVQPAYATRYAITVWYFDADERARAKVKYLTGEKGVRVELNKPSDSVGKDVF
T5 sequence (Q9GZT9 181-426): as above
T4 sequence (Q9GZT9 181-426): as above
KDM6B, sequence (O15054 whole entry, species assumed): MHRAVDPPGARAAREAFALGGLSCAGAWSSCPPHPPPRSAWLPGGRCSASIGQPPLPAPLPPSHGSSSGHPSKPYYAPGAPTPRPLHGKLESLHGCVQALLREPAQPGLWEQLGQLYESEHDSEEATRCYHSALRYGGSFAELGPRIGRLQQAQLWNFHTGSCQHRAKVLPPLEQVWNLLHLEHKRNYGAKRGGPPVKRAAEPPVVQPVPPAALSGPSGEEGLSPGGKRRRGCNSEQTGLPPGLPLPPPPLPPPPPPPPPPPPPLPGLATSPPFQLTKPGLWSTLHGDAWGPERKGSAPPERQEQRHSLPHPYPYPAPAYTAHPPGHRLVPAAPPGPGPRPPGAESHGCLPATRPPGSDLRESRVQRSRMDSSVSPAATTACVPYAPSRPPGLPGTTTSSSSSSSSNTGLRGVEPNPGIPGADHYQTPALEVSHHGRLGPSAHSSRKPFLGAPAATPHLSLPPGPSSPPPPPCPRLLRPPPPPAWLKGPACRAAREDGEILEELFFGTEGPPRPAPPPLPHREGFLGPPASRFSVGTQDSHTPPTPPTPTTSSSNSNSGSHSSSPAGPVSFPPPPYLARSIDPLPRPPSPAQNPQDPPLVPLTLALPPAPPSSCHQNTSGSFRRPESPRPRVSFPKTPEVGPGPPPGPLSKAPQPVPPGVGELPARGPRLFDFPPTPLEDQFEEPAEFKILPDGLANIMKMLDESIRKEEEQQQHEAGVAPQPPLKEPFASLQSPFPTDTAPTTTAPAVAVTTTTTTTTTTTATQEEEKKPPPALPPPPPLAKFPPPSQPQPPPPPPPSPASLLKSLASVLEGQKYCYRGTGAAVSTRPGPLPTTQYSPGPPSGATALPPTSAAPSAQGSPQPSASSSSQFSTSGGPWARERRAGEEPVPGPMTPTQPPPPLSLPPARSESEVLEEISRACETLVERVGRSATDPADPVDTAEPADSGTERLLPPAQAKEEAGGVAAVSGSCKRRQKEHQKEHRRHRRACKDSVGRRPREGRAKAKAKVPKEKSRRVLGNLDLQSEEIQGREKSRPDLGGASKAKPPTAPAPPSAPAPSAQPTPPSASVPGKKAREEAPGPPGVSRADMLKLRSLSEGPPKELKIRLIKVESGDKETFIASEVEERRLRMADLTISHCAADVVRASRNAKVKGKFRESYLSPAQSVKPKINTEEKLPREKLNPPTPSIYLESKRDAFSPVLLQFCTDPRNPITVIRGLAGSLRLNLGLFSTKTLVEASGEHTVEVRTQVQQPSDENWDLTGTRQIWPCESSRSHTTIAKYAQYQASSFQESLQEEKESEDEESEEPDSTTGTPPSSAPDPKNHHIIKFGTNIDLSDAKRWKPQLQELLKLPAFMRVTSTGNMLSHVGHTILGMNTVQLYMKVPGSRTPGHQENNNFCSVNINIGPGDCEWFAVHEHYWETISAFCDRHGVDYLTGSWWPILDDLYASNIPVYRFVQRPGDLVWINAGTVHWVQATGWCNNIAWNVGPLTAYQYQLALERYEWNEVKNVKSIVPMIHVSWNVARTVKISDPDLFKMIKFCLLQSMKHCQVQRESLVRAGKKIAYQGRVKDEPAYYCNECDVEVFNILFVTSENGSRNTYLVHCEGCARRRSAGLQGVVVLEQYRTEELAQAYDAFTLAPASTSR
KDM5B, sequence (Q9UGL1 whole entry, species assumed): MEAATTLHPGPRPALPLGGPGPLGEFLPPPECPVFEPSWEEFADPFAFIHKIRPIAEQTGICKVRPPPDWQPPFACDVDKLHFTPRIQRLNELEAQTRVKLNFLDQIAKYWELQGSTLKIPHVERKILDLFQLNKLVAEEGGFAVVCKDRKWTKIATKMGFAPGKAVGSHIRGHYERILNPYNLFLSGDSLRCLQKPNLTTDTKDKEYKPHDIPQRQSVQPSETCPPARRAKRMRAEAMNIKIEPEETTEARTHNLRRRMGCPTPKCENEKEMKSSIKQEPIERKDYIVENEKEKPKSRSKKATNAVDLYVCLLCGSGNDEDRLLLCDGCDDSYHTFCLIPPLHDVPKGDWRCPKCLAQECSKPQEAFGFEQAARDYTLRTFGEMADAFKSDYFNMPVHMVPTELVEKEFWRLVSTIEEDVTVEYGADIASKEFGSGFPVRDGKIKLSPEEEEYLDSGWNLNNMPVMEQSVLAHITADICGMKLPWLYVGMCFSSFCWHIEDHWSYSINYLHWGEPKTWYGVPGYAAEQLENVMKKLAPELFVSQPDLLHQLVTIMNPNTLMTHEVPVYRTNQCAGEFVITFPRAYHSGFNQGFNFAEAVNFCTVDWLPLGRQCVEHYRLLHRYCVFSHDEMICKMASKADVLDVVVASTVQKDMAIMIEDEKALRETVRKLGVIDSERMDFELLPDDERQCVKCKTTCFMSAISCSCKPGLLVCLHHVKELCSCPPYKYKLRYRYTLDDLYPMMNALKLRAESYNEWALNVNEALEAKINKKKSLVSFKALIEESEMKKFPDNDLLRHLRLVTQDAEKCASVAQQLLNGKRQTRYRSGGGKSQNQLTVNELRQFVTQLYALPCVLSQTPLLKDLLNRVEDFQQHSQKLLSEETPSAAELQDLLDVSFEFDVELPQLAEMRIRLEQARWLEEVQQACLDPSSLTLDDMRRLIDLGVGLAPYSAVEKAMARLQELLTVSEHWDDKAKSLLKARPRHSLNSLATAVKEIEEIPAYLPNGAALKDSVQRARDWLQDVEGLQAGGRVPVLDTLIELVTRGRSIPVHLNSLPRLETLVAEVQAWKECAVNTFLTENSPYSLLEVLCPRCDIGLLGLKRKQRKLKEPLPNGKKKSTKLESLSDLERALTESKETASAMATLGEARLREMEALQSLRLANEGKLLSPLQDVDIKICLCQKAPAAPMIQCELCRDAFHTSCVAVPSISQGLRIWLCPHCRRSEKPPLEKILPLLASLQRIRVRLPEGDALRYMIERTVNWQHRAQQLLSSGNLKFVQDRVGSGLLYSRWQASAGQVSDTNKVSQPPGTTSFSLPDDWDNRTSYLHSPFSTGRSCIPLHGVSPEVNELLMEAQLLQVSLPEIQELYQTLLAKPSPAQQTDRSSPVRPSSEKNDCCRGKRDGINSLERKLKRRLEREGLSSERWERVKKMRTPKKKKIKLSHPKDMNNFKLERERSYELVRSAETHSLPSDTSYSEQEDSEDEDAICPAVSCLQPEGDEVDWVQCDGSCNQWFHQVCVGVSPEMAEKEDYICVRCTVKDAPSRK

covalent modification of PHD2 [1]: Some apparent covalent modification
SMILES: O=Cc1cccc(C(=O)NCC(=O)O)n1 [S4]

IC50 [2]: 18.2 µM | IC50 [3]: 10.3 µM | IC50 [4]: 13.6 µM | IC50 [5]: 8.4 µM
SMILES: C=CC(=O)Nc1cc(N=[N+]=[N-])cc(C(=O)NCC(=O)O)c1O [compound 7]

covalent adduct with PHD2 after up to 2 h ([1]; equimolar PHD2/Fe(II), 37 °C, up to 2 h): No covalent adduct
SMILES: C=CCc1cccc(C(=O)NCC(=O)O)c1O [compound 4]

condensation (covalent adduct) with PHD2 after 5 min ([1]; 37 °C): complete condensation | covalent reaction with PHD2 after 20 min ([1]; 37 °C): react with PHD2 | catalytic activity (CODD hydroxylation) of PHD2 covalently modified by the compound [6]: apparently active | IC50 [7]: > 100 µM | drop of IC50 on preincubation [8]: ~2 fold
SMILES: O=Cc1cccc(C(=O)NCC(=O)O)c1O [compound 1]
HIF-1α upregulation in HeLa cells ([9]; 50 or 250 µM): no upregulation of HIF-1α

condensation (covalent adduct) with PHD2 after 5 min ([1]; 37 °C): ~30% | covalent reaction with PHD2 after 20 min ([1]; 37 °C): react with PHD2 | catalytic activity (CODD hydroxylation) of PHD2 covalently modified by the compound [6]: apparently active | IC50 [7]: > 100 µM | drop of IC50 on preincubation [8]: ~2 fold
SMILES: O=Cc1c(O)c(C(=O)NCC(=O)O)cc2ccccc12 [compound 2]
HIF-1α upregulation in HeLa cells ([9]; 50 or 250 µM): no upregulation of HIF-1α

covalent modification of PHD2 [1]: No covalent modification
SMILES: O=Cc1ccc(O)c(C(=O)NCC(=O)O)c1 [S1]

SMILES: CCOC(=O)CNC(=O)c1cccc(C=O)c1O [compound 5]
HIF-1α upregulation in HeLa cells ([9]; 0-500 μM): caused upregulation of HIF-1α | HIF-1α upregulation in HeLa cells at high concentrations ([9]; >250 μM): more pronounced HIF-1α upregulation
